Data as given in patent publication US8961930B2, “Isatin derivatives for use as in vivo imaging agents” (Imperial Innovations Limited, priority 2008, dated 2015).

Legend:
[1] = Log P determination, octanol-water partition coefficient; format: physicochemical; conditions: read-out: Measured Log P
Protocol: Lipophilicity was assessed by measuring the octanol-water partition coefficient using the method of Barthel et al^18. Briefly, [^18F]11 (˜180 μCi in 25 μL ethanol) was diluted to a final volume of 100 μL using water to give the stock solution. Aliquots of stock solution (10 μL) were added to water (490 μL) and octan-1-ol (Aldrich anhydrous grade) (500 μL). The solutions were then shaken vigorously for 10 min then centrifuged (13201 g, 20° C., 30 min) Following centrifugation portions (200 μL) of the water and octanol layers were carefully removed and placed analyzed on a Cobra II Auto-Gamma counter (Packard Instruments, Meriden, Conn., USA) and compared. The octanol-water partition coefficient was obtained by dividing the octanol containing radioactivity by the water containing radioactivity. Log P was determined to be 1.61, as indicated in footnote c of Table 1 above.

PEO4 xenograft = test: In vivo [^18F]11 biodistribution and PET imaging, PEO4 xenograft; set-up: species or system mice; conditions: for 60 min biodistribution, Bone / 60 min biodistribution, Kidney / 60 min biodistribution, L. Intestine / 60 min biodistribution, Liver / 60 min biodistribution, Lung / 60 min biodistribution, Muscle / 60 min biodistribution, S. Intestine / 60 min biodistribution, Spleen / 60 min biodistribution, Tumour: PEO4
Excerpt: In vivo tumour models were established by subcutaneous injection of PEO1/4 (10×10^6 cells, with v/v matrigel, BD Biosciences, Oxford, UK), RIF-1 (5×10^5 cells) and LNM35 (1×10^6 cells) on the back of 6-8 weeks old female nu/nu-BALB/c or male C3H/hej mice (Harlan, Bicester, Oxfordshire, UK). Tumour growth was monitored every two days using electronic callipers, and tumour volume estimated using (π/6)×L×W×D (L=length, W=width and D=depth). All animal work was done by licensed investigators in accordance with the United Kingdom's “Guidance on the Operation of Animals (Scientific Procedures) Act 1986” (HMSO, London, United Kingdom, 1990) and in full compliance with government regulations and guidelines on the welfare of animals in experimental neoplasia.
For biodistribution studies, tumour-bearing mice were treated with 10 mg/kg cisplatin or vehicle for 24 h, anesthetized with isofluorane/O2/N2O and injected i.v. in the lateral tail vein with ˜100 μCi [^18F]11 for the indicated time. The different tissues were removed, weighted and placed in counting tubes for immediate Fluorine-18 radioactivity counting.
Tumour-bearing mice treated with Cisplatin (10 mg/kg for 24 h) or vehicle were scanned on a dedicated small animal PET scanner (quad-HIDAC; Oxford Positron Systems, Weston-on-the-Green, United Kingdom). Anesthetized animals were placed within a thermostatically controlled bed and positioned prone within the scanner. The bed was calibrated to provide a mouse rectal temperature of ˜37° C. A bolus injection of [^18F]11 (˜100 μCi) was given intravenously (i.v.) via the tail vein cannula and scanning commenced. Dynamic emission scans were acquired in list-mode format over 60 minutes. The acquired data were then sorted into 0.5-mm sinogram bins and 19 time frames (0.5×0.5×0.5 mm voxels; 4×15, 4×60, and 11×300 seconds) for image reconstruction, which was done by filtered back projection using a two-dimensional Hamming filter (cutoff 0.6). The image data-sets obtained were transferred to a SUN workstation (Ultra 10; SUN Microsystems, Santa Clara, Calif.) and visualized using the Analyze software (version 6.0; Biomedical Imaging Resource, Mayo Clinic, Rochester, Minn.). Cumulative images of the dynamic data composed of 0 to 1 minute after injection and 30 to 60 minutes after injection were used for visualization of radiotracer uptake and to define the regions of interest (ROI). The count densities were averaged for each ROI at each of the 19 time points to obtain a time versus radioactivity curve (TAC) for the ROIs. Tumour TAC was normalized to that of heart at each of the time points to obtain the normalized uptake value (NUV). The [^18F]9 data from […] were used as internal input function for normalizing tumour data. […] FRT is a useful variable in that it indicates the proportion of radiotracer delivered to the tumour that is retained. It therefore normalizes tumor [^18F]9 uptake to delivery.

## O=C1C(=O)N(Cc2cn(CC[18F])nn2)c2ccc(S(=O)(=O)N3CCC[C@H]3COc3ccc(F)cc3F)cc21 [[^18F]11, (S)-1-((1-(2-Fluoroethyl)-1H-[1,2,3]-triazol-4-yl)methyl)-5-(2(2,4-difluorophenoxymethyl)-pyrrolidine-1-sulfonyl)isatin]
[1]
  logP at 10 min: 1.61
PEO4 xenograft; CDDP treated
  60 min biodistribution, Bone: 1.44 ± 0.66
  60 min biodistribution, Kidney: 7.96 ± 3.34
  60 min biodistribution, L. Intestine: 2.89 ± 0.93
  60 min biodistribution, Liver: 8.22 ± 2.89
  60 min biodistribution, Lung: 4.73 ± 1.78
  60 min biodistribution, Muscle: 1.13 ± 0.22
  60 min biodistribution, S. Intestine: 10.43 ± 14.36
  60 min biodistribution, Spleen: 1.81 ± 0.80
  60 min biodistribution, Tumour: 2.15 ± 0.79
PEO4 xenograft; Control
  60 min biodistribution, Bone: 1.12 ± 0.47
  60 min biodistribution, Kidney: 8.04 ± 4.24
  60 min biodistribution, L. Intestine: 2.40 ± 1.88
  60 min biodistribution, Liver: 6.71 ± 1.56
  60 min biodistribution, Lung: 3.31 ± 0.83
  60 min biodistribution, Muscle: 0.88 ± 0.36
  60 min biodistribution, S. Intestine: 10.37 ± 10.58
  60 min biodistribution, Spleen: 1.26 ± 0.45
  60 min biodistribution, Tumour: 1.66 ± 0.41
PEO4 xenograft; CDDP-resistant PEO4 tumours, 60 min
  uptake in the tumour of CDDP treated vs control mice: not showing differences in uptake between control and treated
PEO4 xenograft; CDDP-treated mouse, PEO4 xenograft, 30-60 min
  PET image: uptake in the tumour: significant uptake
